Reference: patent publication US7875598B2, “Compositions useful for the treatment of microbial infections” (The Regents of the University of California, priority 2004, dated 2011)
In brackets after ≈: the same amount, converted by molar mass. Each block holds one compound with its values, some of them ahead of it.

Legend:
[1] = test system: Clinical isolated drug-resistant C. albicans; experiment: Sensitivity of clinical isolated drug-resistant C. albicans; type: cell-based, Candida albicans
Procedure: (§1) Bioassays were conducted to further characterize these two compounds.

C. albicans = experiment: Anti-fungal activity (MIC) against C. albicans; type: cell-based, Candida albicans; details: for MIC: Candida albicans
Procedure: The compositions of the present invention usually have an anti-microbial effect, e.g., anti-G^+ bacteria activity, anti-G^− bacteria activity, anti-fungus activity or effect on bacterial quorum sensing. Methods or assays for testing the anti-microbial activity of a composition are readily available to one skilled in the art. For example, compositions of the present invention can be incubated with a bacterial or fungous culture, and the bacterial or fungous growth can be subsequently examined with a plate reader. Compositions of the present invention can also be examined for their effect on bacterial quorum sensing using either an acyl-homoserine lactone quorum sensing reporter system or a luxS quorum sensing reporter system.
as §1

S. mutans = experiment: Anti-bacterial activity (MIC) against S. mutans; type: cell-based, Streptococcus mutans; details: for MIC: Streptococcus mutans
[2] = test system: Vancomycin resistant Enterococci; experiment: Sensitivity of Vancomycin resistant Enterococci; type: cell-based
[3] = test system: methicillin resistant Staphylococcus aureus; experiment: Sensitivity of methicillin resistant Staphylococcus aureus; type: cell-based
bacteria = experiment: Enhancement of activity of other antibiotics (synergistic effect) in the bioassay; type: cell-based
From the text: Perilla was selected for two types of bioactivity. […] The second is its ability to enhance other antibacterial activities through some kind of synergistic effect. When the crude extract was mixed with antibiotics in the bioassay, it could enhance the activity of other antibiotics at a concentration at least 10 times lower than its MIC.

SMILES: CC1OC(OC2C(O)[C@H](OC3OC(C)C(O)C(O)C3O)C(CO)O[C@H]2O[C@H]2CC[C@@]3(C)C(=CCC4C5CC6OC7(CC[C@@H](C)CO7)[C@@H](C)C6[C@@]5(C)CCC43)C2)C(O)C(O)C1O (stereo partly drawn) [Dioscin, (3β,25R)-spirost-5-en-3-yl O-6-deoxy-α-L-mannopyranosyl-(1→2)-O-[6-deoxy-α-L-mannopyranosyl-(1→4)]-β-D-glucopyranoside]
sensitivity of clinical isolated drug-resistant C. albicans to treatment [1]: still sensitive | fungicidal effect (C. albicans): fungicidal effect | MIC (C. albicans): ~4 µg/mL (≈ 4.6 µM)

MIC (S. mutans): 10 µg/mL (≈ 35.9 µM)
SMILES: CC/C=C\C/C=C\C/C=C\CCCCCCCC(=O)O [Linolenic acid, (9Z,12Z,15Z)-9,12,15-octadecatrienoic acid]

MIC (S. mutans): 4 µg/mL (≈ 9.12 µM)
SMILES: C=C(C)[C@H](CC=C(C)C)Cc1c(O)cc(OC)c2c1O[C@H](c1ccc(O)cc1O)CC2=O [kurarinone, 2-(2,4-dihydroxyphenyl)-2,3-dihydro-7-hydroxy-5-methoxy-8-[5-methyl-2-(1-methylethenyl)-4-hexenyl]-4H-1-benzopyran-4-one]
sensitivity of Vancomycin resistant Enterococci to the compound [2]: sensitive | sensitivity of methicillin resistant Staphylococcus aureus to the compound [3]: sensitive | bactericidal effect (S. mutans; organism not given): bactericidal effect | sensitivity of antimicrobial activity to environmental changes (S. mutans; pH (4.8-7.4), salt composition (Na, K, Ca), salt concentrations, oxygen levels (anaerobic and aerobic), temperature (120° C.)): insensitive

SMILES: CC1OC(OC2[C@H](O[C@H]3CC[C@@]4(C)C(=CCC5C6CC7OC8(CC[C@@H](C)CO8)[C@@H](C)C7[C@@]6(C)CCC54)C3)OC(CO)[C@@H](O[C@@H]3O[C@@H](CO)[C@@H](O)[C@H]3O)[C@@H]2O)C(O)C(O)C1O (stereo partly drawn) [Polyphyllin D, (3β,25R)-spirost-5-en-3-yl O-α-L-arabinofuranosyl-(1→4)-O-[6-deoxy-α-L-mannopyranosyl-(1→2)]-β-D-glucopyranoside]
sensitivity of clinical isolated drug-resistant C. albicans to treatment [1]: still sensitive | fungicidal effect (C. albicans): fungicidal effect | MIC (C. albicans): ~2 µg/mL (≈ 2.34 µM)

SMILES: C=C(C)C1CC=C(C=O)CC1 (centres unmarked) [perillaldehyde, 4-(1-methylethenyl)-1-cyclohexene-1-carboxaldehyde]
ability to enhance activity of other antibiotics (bacteria): enhance activity of other antibiotics in a dose-dependent manner | MIC (S. mutans): 10000 µg/mL (≈ 66600 µM)
